Measurements: patent US5428139A, “Bicyclopolyazamacrocyclophosphonic acid complexes for use as radiopharmaceuticals” (The Dow Chemical Company, priority 1991, dated 1995)

Assays:
[1] = Biodistribution: percent of injected dose in tissues; assay type: in vivo, Sprague Dawley rats; settings: for % injected dose in bone: 100 μl complex i.v. via tail vein, bone estimated as femur x 25; for % injected dose in blood: blood assumed 7% of body weight; for % injected dose in muscle: muscle assumed 43% of body weight
Experimental: Sprague Dawley rats were allowed to acclimate for five days then injected with 100 μl of the complex solution via a tail vein. The rats weighed between 150 and 200 g at the time of injection. After 30 min. the rats were killed by cervical dislocation and dissected. The amount of radioactivity in each tissue was determined by counting in a NaI scintillation counter coupled to a multichannel analyzer. The counts were compared to the counts in 100 μl standards in order to determine the percentage of the dose in each tissue or organ.
The percent dose in blood was estimated assuming blood to be 7% of the body weight. The percent dose in bone was estimated by multiplying the percent dose in the femur by 25. The percent dose in muscle was estimated assuming muscle to be 43% of the body weight.

[2] = Percent metal as a complex (Sephadex column, ion exchange method); assay type: physicochemical; settings: 1:1 ligand/metal, eluted with 4:1 saline (0.85% NaCl/NH4 OH)
Experimental: A stock ^153 SmCl3 solution was prepared by adding 2 μL of 3×10^-4 M ^153 SmCl3 in 0.1N HCl to 2 mL of a 3×10^-4 M SmCl3 carrier solution. Appropriate ligand solutions were then prepared in deionized water. The 1:1 ligand/metal complexes were then prepared by combining the ligands (dissolved in 100-500 μL of deionized water) with 2 mL of the stock ^153 SmCl3 solution, followed by through mixing to give an acidic solution (pH=2). The pH of the solution was then raised to 7.0 using 0.1N NaOH. The percent metal as a complex was then determined by passing a sample of the complex solution through a Sephadex™ G-50 column, eluting with 4:1 saline ([…]) and collecting 2×3 mL fractions. The amount of radioactivity in the combined elutions was then compared with that left on the resin (non-complexed metal is retained on the resin). […]
A solution of the ligand of Example 1 was prepared by dissolving 3.8 mg of ligand/0.517 mL of deionized water (pH=2). […] After thorough mixing, the percent metal as a complex was determined by passing a sample of the complex solution through a Sephadex™ column, eluting with 4:1 saline (0.85% NaCl/NH4 OH), and collecting 2×3 mL fractions. The amount of radioactivity in the combined elutions was then compared with that left on the resin. […] By this method complexation was determined to be 98%. […] The pH stability was then determined using the General Procedure above.

[3] = patients with metastatic bone lesions; cited from earlier work
[4] = Sprague Dawley rats, 30 min, average
[5] = Sprague Dawley rats, tail vein, 30 min, average
[6] = rats, 30 min, % dose/G printed for bone to blood ratio

O=P(O)(O)CN1CCN(CP(=O)(O)O)Cc2cccc(n2)CN(CP(=O)(O)O)CC1.[90Y] [^90 Y-PCTMP, complex of ^90 Y-3,6,9,15-tetraazabicyclo[9.3.1]pentadeca-1(15),11,13-triene-3,6,9-trimethylenephosphonic acid]
bone to blood ratio ([1]; % dose/G, rats, 30 min): 140
% injected dose in bone [1, 4]: 29%
% injected dose in kidney [1, 5]: 0.36%
% injected dose in liver [1, 5]: 0.21%
% injected dose in blood [1, 5]: 0.18%
% injected dose in muscle [1, 5]: 0.42%
bone to liver ratio [1, 6]: 76
bone to muscle ratio [1, 6]: 400

O=P(O)(O)CN1CCN(CP(=O)(O)O)Cc2cccc(n2)CN(CP(=O)(O)O)CC1.[166Ho] [^166 Ho-PCTMP, complex of ^166 Ho-3,6,9,15-tetraazabicyclo[9.3.1]pentadeca-1(15),11,13-triene-3,6,9-trimethylenephosphonic acid]
% injected dose in bone [1, 4]: 43%
% injected dose in kidney [1, 5]: 0.33%
% injected dose in liver [1, 5]: 3.55%
% injected dose in blood [1, 5]: 0.12%
% injected dose in muscle [1, 5]: 0.34%

O=P(O)(O)CN1CCN(CP(=O)(O)O)Cc2cccc(n2)CN(CP(=O)(O)O)CC1.[153Sm] [^153 Sm-PCTMP, complex of ^153 Sm-3,6,9,15-tetraazabicyclo[9.3.1]pentadeca-1(15),11,13-triene-3,6,9-trimethylenephosphonic acid]
bone localization ([1]; 5:1 ligand to metal ratio): about 60%
% injected dose in bone [1, 4]: 60%
% injected dose in kidney [1, 5]: 0.38%
% injected dose in liver [1, 5]: 2.80%
% injected dose in spleen [1, 5]: 0.16%
% injected dose in blood [1, 5]: 0.29%
% injected dose in muscle [1, 5]: 0.40%
percent metal as a complex (complexation) [2]: 98%

Strontium-89
blood levels [3]: high
lesion to normal bone ratios [3]: low
